Test results published in the supplement of paper PMC10627819.

Legend:
[1] = test system: B. subtilis 168; test: fitness (endpoint OD595 vs no drug) (fraction); higher = more growth
Procedure, shortened: (§1)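 Background-subtracted growth curves were the basis for fitness, taken as the optical density at entry into stationary phase over the robust mean of no-drug control wells. A cap of 1 was applied. The curves came from OD595 readings every 30 min for 14 h at 37 °C, in 384-well plates seeded at OD595 0.01 with 30 µl, or 55 µl for S. pneumoniae.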

[2] = test system: S. aureus DSM 20231; test: as above
Procedure, shortened: as §1

[3] = test system: S. aureus Newman; test: as above
Procedure, shortened: as §1

[4] = test system: S. pneumoniae D39V; test: as above
Procedure, shortened: as §1

[5] = test system: B. subtilis 168; test: Bliss interaction score (quartile over a dose matrix) (fitness difference); higher = more antagonism (negative = synergy)
Procedure, shortened: (§2)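 Fitness was derived from optical density at entry into stationary phase, divided by the robust mean of the no-drug wells on the same plate. That reading was taken as OD595, and the ratio was capped at 1. Single-drug fitness was inferred from the combination data. The Bliss score, observed fitness minus the expected product of single-drug fitness, was summarised as quartiles over technical, biological and donor/recipient replicates.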

[6] = test system: S. aureus DSM 20231; test: as above
Procedure, shortened: as §2

[7] = test system: S. aureus Newman; test: as above
Procedure, shortened: as §2

[8] = test system: S. pneumoniae D39V; test: as above
Procedure, shortened: as §2
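Wherever Bliss interaction score (quartile over a dose matrix) is given: first quartile when negative (synergy) and third quartile when positive (antagonism).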

Cc1ncc([N+](=O)[O-])n1CCO [Metronidazole] + CN1C2=CC=CC=C2N=C3C1=CC=CC3=O [Pyocyanin]
Conditions | fitness
[1], first compound 0.625 µg/mL, partner 1.25 µg/mL | 0.886
[1], first compound 0.625 µg/mL, partner 2.5 µg/mL | 0.867
[1], first compound 0.625 µg/mL, partner 5 µg/mL | 0.75
[1], first compound 1.25 µg/mL, partner 1.25 µg/mL | 0.884
[1], first compound 1.25 µg/mL, partner 2.5 µg/mL | 0.899
[1], first compound 1.25 µg/mL, partner 5 µg/mL | 0.743
[1], first compound 2.5 µg/mL, partner 1.25 µg/mL | 0.884
[1], first compound 2.5 µg/mL, partner 2.5 µg/mL | 0.896
[1], first compound 2.5 µg/mL, partner 5 µg/mL | 0.719
[2], first compound 0.625 µg/mL, partner 1.25 µg/mL | 0.948
[2], first compound 0.625 µg/mL, partner 2.5 µg/mL | 0.916
[2], first compound 0.625 µg/mL, partner 5 µg/mL | 0.621
[2], first compound 1.25 µg/mL, partner 1.25 µg/mL | 0.996
[2], first compound 1.25 µg/mL, partner 2.5 µg/mL | 0.97
[2], first compound 1.25 µg/mL, partner 5 µg/mL | 0.645
[2], first compound 2.5 µg/mL, partner 1.25 µg/mL | ≥ 1
[2], first compound 2.5 µg/mL, partner 2.5 µg/mL | 0.961
[2], first compound 2.5 µg/mL, partner 5 µg/mL | 0.686
[3], first compound 0.625 µg/mL, partner 1.25 µg/mL | 0.881
[3], first compound 0.625 µg/mL, partner 2.5 µg/mL | 0.831
[3], first compound 1.25 µg/mL, partner 1.25 µg/mL | 0.905
[3], first compound 1.25 µg/mL, partner 2.5 µg/mL | 0.834
[3], first compound 2.5 µg/mL, partner 2.5 µg/mL | 0.802
[3], first compound 2.5 µg/mL, partner 5 µg/mL | 0.258
[4], first compound 1.073 µg/mL, partner 0.325 µg/mL | ≥ 1
[4], first compound 1.073 µg/mL, partner 0.65 µg/mL | ≥ 1
[4], first compound 1.073 µg/mL, partner 1.3 µg/mL | 0.795
[4], first compound 2.145 µg/mL, partner 0.325 µg/mL | 0.958
[4], first compound 2.145 µg/mL, partner 0.65 µg/mL | 0.98
[4], first compound 2.145 µg/mL, partner 1.3 µg/mL | 0.731
[4], first compound 4.29 µg/mL, partner 0.325 µg/mL | 0.98
[4], first compound 4.29 µg/mL, partner 0.65 µg/mL | 0.95
[4], first compound 4.29 µg/mL, partner 1.3 µg/mL | 0.815

fitness, one replicate
Conditions | first compound 0.781 µg/mL | first compound 1.25 µg/mL | first compound 1.562 µg/mL | first compound 2.5 µg/mL | first compound 3.124 µg/mL | first compound 5 µg/mL
[3], partner 1.25 µg/mL | 0.808 | – | 0.785 | – | 0.771 | –
[3], partner 2.5 µg/mL | 0.795 | – | 0.768 | – | 0.78 | –
[3], partner 5 µg/mL | 0.376 | – | 0.425 | – | 0.418 | –
[4], partner 0.325 µg/mL | – | ≥ 1 | – | ≥ 1 | – | ≥ 1
[4], partner 0.65 µg/mL | – | ≥ 1 | – | ≥ 1 | – | ≥ 1

Conditions | Bliss interaction score
[5] | -0.0539
[6] | 0.0663
[7] | 0.0796
[8] | 0.0391

COc1cccc2c1C(=O)c1c(O)c3c(c(O)c1C2=O)C[C@@](O)(C(=O)CO)C[C@@H]3O[C@H]1C[C@H](N)[C@H](O)[C@H](C)O1 [Doxorubicin] + COc1ccc(C[C@H](N)C(=O)N[C@H]2[C@@H](O)[C@H](n3cnc4c(N(C)C)ncnc43)O[C@@H]2CO)cc1 [Puromycin]
fitness
Conditions | first compound 0.25 µg/mL | first compound 0.5 µg/mL | first compound 0.625 µg/mL | first compound 1 µg/mL | first compound 1.25 µg/mL | first compound 2.5 µg/mL
[1], partner 0.39 µg/mL | – | – | 0.918 | – | 0.879 | 0.558
[1], partner 0.78 µg/mL | – | – | 0.987 | – | 0.925 | 0.45
[1], partner 1.56 µg/mL | – | – | 0.925 | – | 0.89 | 0.336
[2], partner 0.39 µg/mL | – | – | 0.912 | – | 0.869 | 0.803
[2], partner 0.78 µg/mL | – | – | 0.889 | – | 0.954 | 0.783
[2], partner 1.56 µg/mL | – | – | 0.874 | – | 0.858 | 0.733
[3], partner 0.39 µg/mL | – | – | 0.84 | – | 0.763 | 0.699
[3], partner 0.78 µg/mL | – | – | 0.801 | – | 0.767 | 0.68
[3], partner 1.56 µg/mL | – | – | 0.84 | – | 0.725 | 0.678
[4], partner 1 µg/mL | 0.998 | ≥ 1 | – | 0.882 | – | –
[4], partner 2 µg/mL | 0.926 | 0.914 | – | 0.874 | – | –
[4], partner 4 µg/mL | 0.54 | 0.567 | – | 0.399 | – | –

fitness, [2], one replicate
Conditions | first compound 0.625 µg/mL | first compound 1.25 µg/mL | first compound 2.5 µg/mL
partner 3.12 µg/mL | 0.91 | 0.821 | 0.776
partner 6.24 µg/mL | 0.801 | 0.679 | 0.59

Conditions | Bliss interaction score
[5] | -0.059
[6] | -0.0672
[7] | -0.0786
[8] | 0.0661

Cc1ncc([N+](=O)[O-])n1CCO [Metronidazole] + COc1ccc(C[C@H](N)C(=O)N[C@H]2[C@@H](O)[C@H](n3cnc4c(N(C)C)ncnc43)O[C@@H]2CO)cc1 [Puromycin]
fitness
Conditions | first compound 0.625 µg/mL | first compound 1.073 µg/mL | first compound 1.25 µg/mL | first compound 2.145 µg/mL | first compound 2.5 µg/mL | first compound 4.29 µg/mL
[1], partner 0.39 µg/mL | 0.936 | – | 0.945 | – | 0.961 | –
[1], partner 0.78 µg/mL | 0.953 | – | 0.931 | – | 0.937 | –
[1], partner 1.56 µg/mL | 0.946 | – | 0.895 | – | 0.864 | –
[2], partner 0.39 µg/mL | 0.997 | – | ≥ 1 | – | ≥ 1 | –
[2], partner 0.78 µg/mL | ≥ 1 | – | ≥ 1 | – | ≥ 1 | –
[2], partner 1.56 µg/mL | ≥ 1 | – | ≥ 1 | – | ≥ 1 | –
[3], partner 0.39 µg/mL | 0.902 | – | 0.998 | – | ≥ 1 | –
[3], partner 0.78 µg/mL | 0.968 | – | ≥ 1 | – | ≥ 1 | –
[3], partner 1.56 µg/mL | ≥ 1 | – | ≥ 1 | – | ≥ 1 | –
[4], partner 1 µg/mL | – | ≥ 1 | – | 0.875 | – | 0.96
[4], partner 2 µg/mL | – | 0.973 | – | 0.904 | – | 0.914
[4], partner 4 µg/mL | – | 0.874 | – | 0.836 | – | 0.88

one replicate
Conditions | fitness
[2], first compound 0.625 µg/mL, partner 3.12 µg/mL | ≥ 1
[2], first compound 0.625 µg/mL, partner 6.24 µg/mL | 0.756
[2], first compound 1.25 µg/mL, partner 3.12 µg/mL | 0.957
[2], first compound 1.25 µg/mL, partner 6.24 µg/mL | 0.827
[2], first compound 2.5 µg/mL, partner 3.12 µg/mL | 0.977
[2], first compound 2.5 µg/mL, partner 6.24 µg/mL | 0.848
[3], first compound 0.781 µg/mL, partner 0.39 µg/mL | ≥ 1
[3], first compound 0.781 µg/mL, partner 0.78 µg/mL | ≥ 1
[3], first compound 0.781 µg/mL, partner 1.56 µg/mL | ≥ 1
[3], first compound 1.562 µg/mL, partner 0.39 µg/mL | 0.974
[3], first compound 1.562 µg/mL, partner 0.78 µg/mL | 0.997
[3], first compound 1.562 µg/mL, partner 1.56 µg/mL | ≥ 1
[3], first compound 3.124 µg/mL, partner 0.39 µg/mL | 0.933
[3], first compound 3.124 µg/mL, partner 0.78 µg/mL | ≥ 1
[3], first compound 3.124 µg/mL, partner 1.56 µg/mL | ≥ 1
[4], first compound 1.25 µg/mL, partner 1 µg/mL | 0.928
[4], first compound 1.25 µg/mL, partner 2 µg/mL | 0.97
[4], first compound 1.25 µg/mL, partner 4 µg/mL | 0.842
[4], first compound 2.5 µg/mL, partner 1 µg/mL | 0.936
[4], first compound 2.5 µg/mL, partner 2 µg/mL | ≥ 1
[4], first compound 2.5 µg/mL, partner 4 µg/mL | 0.835
[4], first compound 5 µg/mL, partner 1 µg/mL | 0.97
[4], first compound 5 µg/mL, partner 2 µg/mL | 0.95
[4], first compound 5 µg/mL, partner 4 µg/mL | 0.852

Conditions | Bliss interaction score
[5] | -0.0368
[6] | 0.0499
[7] | 0.0534
[8] | 0.129

C[C@@H]1O[C@@H]1P(=O)(O)O [Fosfomycin] + CN1C2=CC=CC=C2N=C3C1=CC=CC3=O [Pyocyanin]
fitness
Conditions | partner 0.325 µg/mL | partner 0.65 µg/mL | partner 1.25 µg/mL | partner 1.3 µg/mL | partner 2.5 µg/mL | partner 5 µg/mL
[1], first compound 1.562 µg/mL | – | – | 0.671 | – | 0.632 | 0.536
[1], first compound 3.124 µg/mL | – | – | 0.59 | – | 0.588 | 0.471
[1], first compound 6.248 µg/mL | – | – | 0.465 | – | 0.412 | 0.376
[2], first compound 0.781 µg/mL | – | – | 0.673 | – | 0.707 | 0.541
[2], first compound 1.562 µg/mL | – | – | 0.653 | – | 0.629 | 0.472
[2], first compound 3.124 µg/mL | – | – | 0.508 | – | 0.509 | 0.39
[3], first compound 0.781 µg/mL | – | – | 0.547 | – | 0.548 | 0.424
[3], first compound 1.562 µg/mL | – | – | 0.439 | – | 0.465 | 0.38
[3], first compound 3.124 µg/mL | – | – | 0.0851 | – | 0.142 | 0.24
[4], first compound 1.25 µg/mL | 0.992 | ≥ 1 | – | 0.774 | – | –
[4], first compound 2.5 µg/mL | 0.971 | 0.923 | – | 0.791 | – | –
[4], first compound 5 µg/mL | 0.837 | 0.899 | – | 0.745 | – | –

Conditions | Bliss interaction score
[5] | 0.072
[6] | 0.0453
[7] | 0.105
[8] | 0.0461
